In PubChem BioAssay (NCI):
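Five compound concentrations were applied to cells in 96-well plates for 48 hours; endpoints were derived by simple linear interpolation of the resulting dose-response curve. TGI denotes the concentration required for complete inhibition of growth.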

Legend:
Assay in all cases: inhibition of tumour cell growth, NCI panel, 48 h
[1] = test system: SK-MEL-5 melanoma
[2] = test system: HOP-62 NSCLC
[3] = test system: SN12C renal
[4] = test system: MDA-MB-231 breast
[5] = test system: SF-539 CNS
[6] = test system: OVCAR-4 ovarian
[7] = test system: 786-0 renal
[8] = test system: ACHN renal
[9] = test system: HL-60(TB) leukemia
[10] = test system: PC-3 prostate
[11] = test system: MCF7 breast
[12] = test system: K-562 leukemia
[13] = test system: SNB-75 CNS
[14] = test system: OVCAR-8 ovarian
[15] = test system: RPMI-8226 leukemia
[16] = test system: UO-31 renal
[17] = test system: HCT-116 colon
[18] = test system: NCI-H226 lung
[19] = test system: U251 CNS
[20] = test system: SK-OV-3 ovarian
[21] = test system: HCC-2998 colon
[22] = test system: SF-268 CNS
[23] = test system: A549 NSCLC
[24] = test system: NCI-H522 lung
[25] = test system: DU-145 prostate
[26] = test system: KM12 colon
[27] = test system: SR leukemia
[28] = test system: M14 melanoma
[29] = test system: NCI-H23 lung
[30] = test system: NCI/ADR-RES ovarian
[31] = test system: MDA-MB-435
[32] = test system: CCRF-CEM leukemia
[33] = test system: TK-10 renal
[34] = test system: MOLT-4 leukemia
[35] = test system: COLO 205 colon
[36] = test system: SK-MEL-28 melanoma
[37] = test system: IGROV1 ovarian
[38] = test system: SW-620 colon
[39] = test system: MDA-N
[40] = test system: OVCAR-3 ovarian
[41] = test system: UACC-62 melanoma
[42] = test system: EKVX NSCLC
[43] = test system: HS 578T breast
[44] = test system: RXF 393 renal
[45] = test system: SF-295 CNS
[46] = test system: NCI-H460 lung
[47] = test system: BT-549 breast
[48] = test system: HCT-15 colon
[49] = test system: T-47D breast
[50] = test system: SNB-19 CNS
[51] = test system: UACC-257 melanoma
[52] = test system: CAKI-1 renal
[53] = test system: OVCAR-5 ovarian
[54] = test system: HOP-92 NSCLC
[55] = test system: HT29 colon
[56] = test system: SK-MEL-2 melanoma
[57] = test system: LOX IMVI melanoma
[58] = test system: MALME-3M melanoma
[59] = test system: A498 renal

With `O=C1/C(=C/c2ccc(Cl)cc2)Oc2cc(O)ccc21` the TGI [1] was 51.5 µM, the TGI [2] was over 100 µM and the TGI [3] was over 100 µM. It also gave a TGI [4] of over 100 µM, a TGI [5] of 61.3 µM and a TGI [6] of over 100 µM. It also gave a TGI [7] of over 100 µM, a TGI [8] of 61.2 µM and a TGI [9] of 34.9 µM. For the same molecule, the TGI [10] was 89.7 µM, the TGI [11] was over 100 µM and the TGI [12] was 38.5 µM. The TGI [13] was over 100 µM, the TGI [14] was over 100 µM and the TGI [15] was over 100 µM. It also gave a TGI [16] of 47.1 µM, a TGI [17] of over 100 µM and a TGI [18] of 62.3 µM. The TGI [19] was 76.1 µM, the TGI [20] was 78.8 µM and the TGI [21] was over 100 µM. The TGI [22] was over 100 µM, the TGI [23] was 91.7 µM and the TGI [24] was 70.7 µM. It also gave a TGI [25] of over 100 µM, a TGI [26] of over 100 µM and a TGI [27] of 47.1 µM. It also gave a TGI [28] of over 100 µM, a TGI [29] of over 100 µM and a TGI [30] of 79.3 µM. For the same molecule, the TGI [31] was over 100 µM, the TGI [32] was 52 µM and the TGI [33] was 96.8 µM. The TGI [34] was 48.1 µM, the TGI [35] was over 100 µM and the TGI [36] was over 100 µM. It also gave a TGI [37] of over 100 µM, a TGI [38] of over 100 µM and a TGI [39] of over 100 µM. It also gave a TGI [40] of 96.1 µM, a TGI [41] of over 100 µM and a TGI [42] of 94.3 µM. The TGI [43] was 46.6 µM, the TGI [44] was over 100 µM and the TGI [45] was over 100 µM. It also gave a TGI [46] of 89.3 µM, a TGI [47] of over 100 µM and a TGI [48] of over 100 µM. The TGI [49] was over 100 µM, the TGI [50] was 87.4 µM and the TGI [51] was 90.1 µM.

For `Cc1ccc(/C=C/C(=O)Oc2ccc(/C=C3\CCC/C(=C\c4ccc(OC(=O)/C=C/c5ccc(C)cc5)cc4)C3=O)cc2)cc1`, the TGI [52] was over 100 µM, the TGI [1] was over 100 µM and the TGI [2] was over 100 µM. The TGI [3] was over 100 µM, the TGI [4] was over 100 µM and the TGI [5] was over 100 µM. The TGI [6] was over 100 µM, the TGI [7] was 81 µM and the TGI [8] was over 100 µM. The TGI [9] was over 100 µM, the TGI [10] was over 100 µM and the TGI [11] was over 100 µM. It also gave a TGI [13] of 36.3 µM, a TGI [14] of over 100 µM and a TGI [15] of over 100 µM. It also gave a TGI [16] of over 100 µM, a TGI [53] of over 100 µM and a TGI [17] of over 100 µM. The TGI [54] was over 100 µM, the TGI [19] was over 100 µM and the TGI [21] was over 100 µM. For the same molecule, the TGI [22] was over 100 µM, the TGI [23] was over 100 µM and the TGI [24] was over 100 µM. The TGI [25] was over 100 µM, the TGI [26] was over 100 µM and the TGI [55] was over 100 µM. It also gave a TGI [27] of 96.4 µM, a TGI [28] of over 100 µM and a TGI [29] of over 100 µM. It also gave a TGI [30] of over 100 µM, a TGI [56] of over 100 µM and a TGI [31] of over 100 µM. For the same molecule, the TGI [32] was over 100 µM, the TGI [33] was over 100 µM and the TGI [34] was over 100 µM. For the same molecule, the TGI [35] was over 100 µM, the TGI [36] was over 100 µM and the TGI [38] was over 100 µM. The TGI [39] was over 100 µM, the TGI [40] was over 100 µM and the TGI [41] was over 100 µM. For the same molecule, the TGI [42] was over 100 µM, the TGI [43] was over 100 µM and the TGI [57] was over 100 µM. The TGI [45] was over 100 µM, the TGI [46] was over 100 µM and the TGI [47] was over 100 µM. For the same molecule, the TGI [48] was over 100 µM, the TGI [49] was over 100 µM and the TGI [50] was over 100 µM. The TGI [51] was over 100 µM.

`C/C(=N\Nc1nc2cc(Cl)ccc2s1)c1ccccn1` showed a TGI [52] of 46 µM, a TGI [1] of 13.6 µM and a TGI [2] of 11.1 µM. For the same molecule, the TGI [3] was 15.2 µM, the TGI [4] was 7.41 µM and the TGI [58] was over 25.6 µM. For the same molecule, the TGI [5] was over 100 µM, the TGI [6] was over 100 µM and the TGI [59] was over 22.6 µM. For the same molecule, the TGI [8] was 13.4 µM, the TGI [9] was 0.586 µM and the TGI [10] was over 35.2 µM. It also gave a TGI [12] of over 100 µM, a TGI [13] of 31.3 µM and a TGI [14] of over 40.4 µM. For the same molecule, the TGI [15] was over 32.4 µM, the TGI [16] was 14.8 µM and the TGI [53] was over 100 µM. The TGI [17] was over 100 µM, the TGI [18] was over 100 µM and the TGI [54] was 15.4 µM. The TGI [19] was 6.57 µM, the TGI [20] was 33.6 µM and the TGI [21] was over 80.8 µM. The TGI [22] was 34.1 µM, the TGI [23] was over 43.7 µM and the TGI [24] was over 41.1 µM. It also gave a TGI [25] of over 23.3 µM, a TGI [26] of over 84.8 µM and a TGI [27] of over 100 µM. For the same molecule, the TGI [29] was 25.9 µM, the TGI [31] was over 42 µM and the TGI [32] was over 75.4 µM. For the same molecule, the TGI [33] was over 100 µM, the TGI [34] was over 100 µM and the TGI [35] was over 60.4 µM. For the same molecule, the TGI [36] was over 27.5 µM, the TGI [38] was 23.7 µM and the TGI [39] was over 100 µM. For the same molecule, the TGI [40] was 7.11 µM, the TGI [41] was 10.1 µM and the TGI [42] was over 35.5 µM. For the same molecule, the TGI [43] was over 100 µM, the TGI [57] was 13.5 µM and the TGI [46] was over 100 µM. It also gave a TGI [47] of over 61.3 µM, a TGI [48] of over 79.9 µM and a TGI [49] of 43.6 µM. The TGI [50] was 15.6 µM and the TGI [51] was over 100 µM.

`O=C1CC(/C=C/c2ccco2)=C(O)C1=O` gave a TGI [52] of 34.6 µM, a TGI [1] of 26.5 µM and a TGI [2] of 9.07 µM. The TGI [3] was 27.7 µM, the TGI [4] was 35.2 µM and the TGI [58] was 23.9 µM. The TGI [5] was 31.1 µM, the TGI [6] was 27.3 µM and the TGI [8] was 34.3 µM. For the same molecule, the TGI [9] was 57.1 µM, the TGI [10] was 25.4 µM and the TGI [11] was 21.4 µM. For the same molecule, the TGI [12] was 49 µM, the TGI [13] was 32.9 µM and the TGI [14] was 30 µM. It also gave a TGI [15] of 40.2 µM, a TGI [16] of 61.3 µM and a TGI [53] of 30.1 µM. The TGI [17] was 30.4 µM, the TGI [18] was 69.1 µM and the TGI [54] was 28.4 µM. For the same molecule, the TGI [19] was 28.6 µM, the TGI [20] was 54.5 µM and the TGI [21] was 31.9 µM. For the same molecule, the TGI [22] was 75 µM, the TGI [23] was 62.8 µM and the TGI [24] was 31.7 µM. The TGI [25] was 32.5 µM, the TGI [26] was 27.6 µM and the TGI [55] was 30.4 µM. For the same molecule, the TGI [27] was 37.2 µM, the TGI [28] was 29.2 µM and the TGI [29] was 27.2 µM. The TGI [30] was over 100 µM, the TGI [56] was 35.1 µM and the TGI [31] was 35.3 µM. It also gave a TGI [32] of 8.68 µM, a TGI [33] of 44.2 µM and a TGI [34] of 60.8 µM. The TGI [35] was 29.2 µM, the TGI [36] was 48.3 µM and the TGI [37] was 24.5 µM. It also gave a TGI [38] of 31.6 µM, a TGI [39] of 29.7 µM and a TGI [40] of 27.1 µM. The TGI [41] was 30.1 µM, the TGI [42] was 37.6 µM and the TGI [43] was 87.9 µM. It also gave a TGI [57] of 25.4 µM, a TGI [44] of 21.7 µM and a TGI [45] of 40.9 µM. The TGI [46] was 35.6 µM, the TGI [47] was 23.6 µM and the TGI [48] was 31.9 µM. For the same molecule, the TGI [49] was 35.8 µM, the TGI [50] was 30.9 µM and the TGI [51] was 33.2 µM.
